Consider 19 compounds from US20260132132A1, “3A,4,5,6-TETRAHYDRO-1 H-PYRAZOLO[3,4-C]PYRIDIN-7(7AH)-ONE DERIVATIVES AS FACTOR XIIA INHIBITORS” (KALVISTA PHARMACEUTICALS LIMITED, priority 2022, published 2026).

For assay [1], the target named is T1, Human Factor XIIa (hFXIIa) (Homo sapiens, UniProt P00748).
T1 construct: purchased Enzyme Research Laboratories
T1 sequence (P00748 373-615 limits assumed): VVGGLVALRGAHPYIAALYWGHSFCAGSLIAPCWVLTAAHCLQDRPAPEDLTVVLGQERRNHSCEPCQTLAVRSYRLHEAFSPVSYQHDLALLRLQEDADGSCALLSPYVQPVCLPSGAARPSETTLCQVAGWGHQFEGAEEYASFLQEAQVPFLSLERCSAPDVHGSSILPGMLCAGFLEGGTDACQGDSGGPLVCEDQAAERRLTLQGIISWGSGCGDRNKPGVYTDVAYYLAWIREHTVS
T1 sequence (P00748 20-372 partner limits assumed): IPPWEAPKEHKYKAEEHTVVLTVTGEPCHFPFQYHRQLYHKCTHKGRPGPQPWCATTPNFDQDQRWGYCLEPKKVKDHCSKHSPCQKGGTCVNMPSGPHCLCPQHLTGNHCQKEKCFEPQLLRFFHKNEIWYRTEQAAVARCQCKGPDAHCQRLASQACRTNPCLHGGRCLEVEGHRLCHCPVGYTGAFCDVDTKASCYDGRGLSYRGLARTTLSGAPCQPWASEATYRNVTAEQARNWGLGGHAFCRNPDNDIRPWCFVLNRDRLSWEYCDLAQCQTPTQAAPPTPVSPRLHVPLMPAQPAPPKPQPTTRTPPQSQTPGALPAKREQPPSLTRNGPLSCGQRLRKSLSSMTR
As to the kind of experiment: Determination of Human Factor XIIa (hFXIIa) inhibition, fluorogenic substrate IC50 assay. The following applies: fluorogenic substrate H-DPro-Phe-Arg-AFC at Km, 25° C., read-out: Human FXIIa IC50. Type of assay: biochemical. As for the experimental part: Determination of Human Factor XIIa (hFXIIa) inhibition
The Km for the cleavage of the substrate by hFXIIa was determined by standard transformation of the Michaelis-Menten equation, with subsequent inhibition assays performed at substrate Km concentration.

A further assay deals with FXa (Homo sapiens, UniProt P00742). As to the kind of experiment: Related protease inhibition: FXa, fluorogenic substrate. It counts as biochemical. Particulars: fluorogenic substrate at Km, 25° C.; H1-H3 = % activity at 40 μM. The protocol: Human serine protease enzyme Plasma Kallikrein, KLK1, FXa, Plasmin, Thrombin and Trypsin were assayed for enzymatic activity using an appropriate fluorogenic substrate at Km concentration, FXIa at fixed substrate concentration of 100 μM and various concentrations of the test compound.
Sequence of FXa (P00742 235-488 limits assumed): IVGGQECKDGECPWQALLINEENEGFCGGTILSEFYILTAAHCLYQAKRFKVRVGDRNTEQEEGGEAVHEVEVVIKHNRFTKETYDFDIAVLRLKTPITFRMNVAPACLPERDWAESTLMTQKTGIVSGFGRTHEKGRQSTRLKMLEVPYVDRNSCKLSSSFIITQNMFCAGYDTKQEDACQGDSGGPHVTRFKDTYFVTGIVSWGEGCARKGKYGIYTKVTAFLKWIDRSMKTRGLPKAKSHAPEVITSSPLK
Sequence of FXa (P00742 41-179 partner limits assumed): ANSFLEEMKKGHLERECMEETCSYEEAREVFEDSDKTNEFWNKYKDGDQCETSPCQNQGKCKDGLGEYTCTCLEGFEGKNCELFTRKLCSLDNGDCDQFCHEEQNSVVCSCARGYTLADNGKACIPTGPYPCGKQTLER

As to `Cc1cc(CNC(=O)c2nn(-c3cccc(Cl)c3)c3c2CCN(c2ccc4c(c2)C(=O)N(CC(=O)O)CC4)C3=O)nn1C` [Example 1331, 2-(7-(1-(3-chlorophenyl)-3-(((1,5-dimethyl-1H-pyrazol-3-yl)methyl)carbamoyl)-7-oxo-1,4,5,7-tetrahydro-6H-pyrazolo[3,4-c]pyridin-6-yl)-1-oxo-3,4-dihydroisoquinolin-2(1H)-yl)acetic acid], the figures for the 50% inhibitory concentration (IC50) (in assay [1]; at FXa) were 0.3 to 1 µM and more than 4 µM, respectively.

Consider `C[C@@H](CO)NC(=O)c1nn(-c2cccc(Cl)c2)c2c1CCN(c1ccc3c(c1)C(=O)N(C)CC3)C2=O` [Example 1344, (S)-1-(3-chlorophenyl)-N-(1-hydroxypropan-2-yl)-6-(2-methyl-1-oxo-1,2,3,4-tetrahydroisoquinolin-7-yl)-7-oxo-4,5,6,7-tetrahydro-1H-pyrazolo[3,4-c]pyridine-3-carboxamide], for which the IC50 lay in the range of 0.3 to 1 µM in assay [1] and 10 to 40 µM at FXa.

Take `Cc1ccncc1CNC(=O)c1nn(-c2cccc(Cl)c2)c2c1CCN(c1ccc3c(c1)C(=O)N(CCO)CCO3)C2=O` [Example 1299, 1-(3-chlorophenyl)-6-(4-(2-hydroxyethyl)-5-oxo-2,3,4,5-tetrahydrobenzo[f][1,4]oxazepin-7-yl)-N-((4-methylpyridin-3-yl)methyl)-7-oxo-4,5,6,7-tetrahydro-1H-pyrazolo[3,4-c]pyridine-3-carboxamide]: the IC50 is 0.01 to 0.1 µM in assay [1] and 10 to 40 µM on FXa.

For the compound `CCN1CCOc2ccc(N3CCc4c(C(=O)NCc5cc(C)[nH]n5)nn(-c5cccc(Cl)c5)c4C3=O)cc2C1=O` [Example 1352, 1-(3-chlorophenyl)-6-(4-ethyl-5-oxo-2,3,4,5-tetrahydrobenzo[f][1,4]oxazepin-7-yl)-N-((5-methyl-1H-pyrazol-3-yl)methyl)-7-oxo-4,5,6,7-tetrahydro-1H-pyrazolo[3,4-c]pyridine-3-carboxamide], the values for the IC50 (in assay [1]; on FXa) were 0.01 to 0.1 µM and 3 to 10 µM, respectively.

With `CN1CCc2ccc(N3CCc4c(C(=O)N[C@H](CO)c5ccccc5)nn(-c5cccc(Cl)c5)c4C3=O)cc2C1=O` [Example 1307, (S)-1-(3-chlorophenyl)-N-(2-hydroxy-1-phenylethyl)-6-(2-methyl-1-oxo-1,2,3,4-tetrahydroisoquinolin-7-yl)-7-oxo-4,5,6,7-tetrahydro-1H-pyrazolo[3,4-c]pyridine-3-carboxamide], the IC50 is 0.1 to 0.3 µM in assay [1] and more than 40 µM against FXa.

As for `CN1CCc2ccc(N3CCc4c(C(=O)N5CCC5)nn(-c5cccc(Cl)c5)c4C3=O)cc2C1=O` [Example 1335, 7-(3-(azetidine-1-carbonyl)-1-(3-chlorophenyl)-7-oxo-1,4,5,7-tetrahydro-6H-pyrazolo[3,4-c]pyridin-6-yl)-2-methyl-3,4-dihydroisoquinolin-1(2H)-one], the IC50 was 1 to 3 µM in assay [1] and more than 40 µM at FXa.

With `Cc1cccc(CNC(=O)c2nn(-c3cccc(Cl)c3)c3c2CCN(c2ccc4c(c2)CN(CCO)CC4)C3=O)n1` [Example 1139, 1-(3-chlorophenyl)-6-(2-(2-hydroxyethyl)-1,2,3,4-tetrahydroisoquinolin-7-yl)-N-((6-methylpyridin-2-yl)methyl)-7-oxo-4,5,6,7-tetrahydro-1H-pyrazolo[3,4-c]pyridine-3-carboxamide], the IC50 in assay [1] was 0.01 to 0.1 µM; against FXa, 10 to 40 µM.

As to `O=C(c1nn(-c2cccc(Cl)c2)c2c1CCN(c1cccc(CN3CCCCC3)c1)C2=O)N1CCCC1` [Example 1009, 1-(3-chlorophenyl)-6-(3-(piperidin-1-ylmethyl)phenyl)-3-(pyrrolidine-1-carbonyl)-1,4,5,6-tetrahydro-7H-pyrazolo[3,4-c]pyridin-7-one], the IC50 in assay [1] was 3 to 10 µM; against FXa it was more than 100 µM.

As for `Cc1cccnc1CNC(=O)c1nn(-c2cccc(Cl)c2)c2c1CCN(c1ccc3c(c1)C(=O)N(C)CC3)C2=O` [Example 1308, 1-(3-chlorophenyl)-6-(2-methyl-1-oxo-1,2,3,4-tetrahydroisoquinolin-7-yl)-N-((3-methylpyridin-2-yl)methyl)-7-oxo-4,5,6,7-tetrahydro-1H-pyrazolo[3,4-c]pyridine-3-carboxamide], the values for the IC50 (in assay [1]; against FXa) were 0.3 to 1 µM and more than 40 µM, respectively.

Take `CCN1Cc2cc(N3CCc4c(C(=O)NCC5CC5)nn(-c5cccc(Cl)c5)c4C3=O)ccc2C2(CC2)C1` [Example 1099, 1-(3-chlorophenyl)-N-(cyclopropylmethyl)-6-(2′-ethyl-2′,3′-dihydro-1′H-spiro[cyclopropane-1,4′-isoquinolin]-7′-yl)-7-oxo-4,5,6,7-tetrahydro-1H-pyrazolo[3,4-c]pyridine-3-carboxamide]: the IC50 in assay [1] lay within 0.01 to 0.1 µM; against FXa it was 3 to 10 µM.

Turning to `Cc1nnc(CNC(=O)c2nn(-c3cccc(Cl)c3)c3c2CCN(c2ccc4c(c2)C(=O)N(C)CC4)C3=O)s1` [Example 1181, 1-(3-chlorophenyl)-N-((5-methyl-1,3,4-thiadiazol-2-yl)methyl)-6-(2-methyl-1-oxo-1,2,3,4-tetrahydroisoquinolin-7-yl)-7-oxo-4,5,6,7-tetrahydro-1H-pyrazolo[3,4-c]pyridine-3-carboxamide], the half-maximal inhibitory concentration (IC50) in assay [1] was 0.3 to 1 µM; against FXa, more than 40 µM.

Take `COc1ccc(CNC(=O)c2nn(-c3cccc(Cl)c3)c3c2CCN(c2ccc4c(c2)C(=O)N(C)CC4)C3=O)cn1` [Example 1235, 1-(3-chlorophenyl)-N-((6-methoxypyridin-3-yl)methyl)-6-(2-methyl-1-oxo-1,2,3,4-tetrahydroisoquinolin-7-yl)-7-oxo-4,5,6,7-tetrahydro-1H-pyrazolo[3,4-c]pyridine-3-carboxamide]: the IC50 in assay [1] is 0.1 to 0.3 µM; against FXa it was more than 40 µM.

Turning to `CC(=O)N1CCc2ccc(N3CCc4c(C(=O)NCc5cnccc5C)nn(-c5cccc(Cl)c5)c4C3=O)cc21` [Example 1188, 6-(1-acetylindolin-6-yl)-1-(3-chlorophenyl)-N-((4-methylpyridin-3-yl)methyl)-7-oxo-4,5,6,7-tetrahydro-1H-pyrazolo[3,4-c]pyridine-3-carboxamide], the IC50 in assay [1] is 0.1 to 0.3 µM; at FXa, more than 40 µM.

For the compound `Cc1cc(CNC(=O)c2nn(-c3cccc(Cl)c3)c3c2CCN(c2ccc4c(c2)C(=O)N(CCO)[C@@H](C)CO4)C3=O)n[nH]1` [Example 1380, (S)-1-(3-chlorophenyl)-6-(4-(2-hydroxyethyl)-3-methyl-5-oxo-2,3,4,5-tetrahydrobenzo[f][1,4]oxazepin-7-yl)-N-((5-methyl-1H-pyrazol-3-yl)methyl)-7-oxo-4,5,6,7-tetrahydro-1H-pyrazolo[3,4-c]pyridine-3-carboxamide], the IC50 fell in the range of 0.3 to 1 µM in assay [1] and 10 to 40 µM against FXa.

For `Cc1cc(CNC(=O)c2nn(-c3cccc(Cl)c3)c3c2CCN(c2ccc4c(c2)CN(CCO)CC4)C3=O)[nH]n1` [Example 1077, 1-(3-chlorophenyl)-6-(2-(2-hydroxyethyl)-1,2,3,4-tetrahydroisoquinolin-7-yl)-N-((3-methyl-1H-pyrazol-5-yl)methyl)-7-oxo-4,5,6,7-tetrahydro-1H-pyrazolo[3,4-c]pyridine-3-carboxamide], the IC50 in assay [1] is 0.01 to 0.1 µM; against FXa it was 3 to 10 µM.

Regarding `COCCN1CCc2ccc(N3CCc4c(C(=O)NCc5cc(C)n(C)n5)nn(-c5cccc(Cl)c5)c4C3=O)cc2C1=O` [Example 1262, 1-(3-chlorophenyl)-N-((1,5-dimethyl-1H-pyrazol-3-yl)methyl)-6-(2-(2-methoxyethyl)-1-oxo-1,2,3,4-tetrahydroisoquinolin-7-yl)-7-oxo-4,5,6,7-tetrahydro-1H-pyrazolo[3,4-c]pyridine-3-carboxamide], the IC50 in assay [1] is 0.1 to 0.3 µM; against FXa, 10 to 40 µM.

On to `O=C(NCc1cnccc1Cl)c1nn(-c2cccc(Cl)c2)c2c1CCN(c1ccc3c(c1)CN(CCO)CC3)C2=O` [Example 1154, 1-(3-chlorophenyl)-N-((4-chloropyridin-3-yl)methyl)-6-(2-(2-hydroxyethyl)-1,2,3,4-tetrahydroisoquinolin-7-yl)-7-oxo-4,5,6,7-tetrahydro-1H-pyrazolo[3,4-c]pyridine-3-carboxamide], for which the results for the IC50 (in assay [1]; on FXa) were 0.01 to 0.1 µM and 10 to 40 µM, respectively.

Consider `CN1CCc2ccc(N3CCc4c(C#N)nn(-c5cccc(Cl)c5)c4C3=O)cc2C1=O` [Example 1388, 1-(3-chlorophenyl)-6-(2-methyl-1-oxo-1,2,3,4-tetrahydroisoquinolin-7-yl)-7-oxo-4,5,6,7-tetrahydro-1H-pyrazolo[3,4-c]pyridine-3-carbonitrile], for which the figures for the IC50 (in assay [1]; on FXa) were 0.3 to 1 µM and 1 to 3 µM, respectively.

Turning to `CCN1CCc2ccc(N3CCc4c(C(=O)NC5CCOCC5)nn(-c5cccc(Cl)c5)c4C3=O)cc2C1` [Example 1085, 1-(3-chlorophenyl)-6-(2-ethyl-1,2,3,4-tetrahydroisoquinolin-7-yl)-7-oxo-N-(tetrahydro-2H-pyran-4-yl)-4,5,6,7-tetrahydro-1H-pyrazolo[3,4-c]pyridine-3-carboxamide], the IC50 in assay [1] was 0.1 to 0.3 µM; against FXa it was more than 40 µM.

As usually defined, the IC50 is the concentration at which inhibition is half-maximal.
